PMC3713324, “Polyisoprenylated Methylated Protein Methyl Esterase Is Both Sensitive to Curcumin and Overexpressed in Colorectal Cancer: Implications for Chemoprevention and Treatment” (BioMed Research International, 2013)

Molecular target: T1, polyisoprenylated methylated protein methyl esterase (PMPMEase) (Sus scrofa, UniProt Q29550)
T1 construct: purified PMPMEase
T1 sequence (Q29550 19-566): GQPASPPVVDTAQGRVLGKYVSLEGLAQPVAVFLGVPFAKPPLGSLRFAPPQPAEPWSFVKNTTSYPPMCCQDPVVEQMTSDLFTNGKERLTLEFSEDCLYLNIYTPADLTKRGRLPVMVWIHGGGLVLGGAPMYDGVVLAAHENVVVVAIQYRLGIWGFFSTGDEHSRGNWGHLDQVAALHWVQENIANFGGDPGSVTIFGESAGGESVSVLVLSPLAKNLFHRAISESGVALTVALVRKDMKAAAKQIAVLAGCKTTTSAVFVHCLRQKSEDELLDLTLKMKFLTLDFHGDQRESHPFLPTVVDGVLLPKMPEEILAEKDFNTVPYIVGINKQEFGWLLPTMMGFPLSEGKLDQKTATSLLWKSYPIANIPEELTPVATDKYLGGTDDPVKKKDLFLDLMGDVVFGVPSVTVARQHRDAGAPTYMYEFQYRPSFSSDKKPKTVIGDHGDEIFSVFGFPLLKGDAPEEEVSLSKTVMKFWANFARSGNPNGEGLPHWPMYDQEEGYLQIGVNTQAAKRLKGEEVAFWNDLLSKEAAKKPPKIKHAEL
Assay: RP-HPLC assay of RD-PNB hydrolysis by purified enzyme; Michaelis-Menten kinetics; reversibility by gel filtration
Assay type: biochemical

`COc1cc(/C=C/C(=O)CC(=O)/C=C/c2ccc(O)c(OC)c2)ccc1O` [curcumin] was tested, and the Ki was 310 nM.
